Test results from PubChem BioAssay (NCI).
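These data come from cells grown in 96-well plates and exposed to compound for 48 hours at five concentrations. TGI denotes the concentration required for complete inhibition of growth.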

Key:
Test in all cases: inhibition of tumour cell growth, NCI panel, 48 h
[1] = test system: A498 renal
[2] = test system: ACHN renal
[3] = test system: EKVX NSCLC
[4] = test system: HOP-92 NSCLC
[5] = test system: MDA-MB-231 breast
[6] = test system: MDA-MB-435
[7] = test system: RXF 393 renal
[8] = test system: SK-MEL-5 melanoma
[9] = test system: SN12C renal
[10] = test system: UACC-257 melanoma

Row | Compound | TGI [1] [µM] | TGI [2] [µM] | TGI [3] [µM] | TGI [4] [µM] | TGI [5] [µM] | TGI [6] [µM] | TGI [7] [µM] | TGI [8] [µM] | TGI [9] [µM] | TGI [10] [µM]
1 | CCCCCCCCCCCCCCCCCCOCC(O)COP(=O)(O)OCC1OC(n2cc(F)c(=O)[nH]c2=O)CC1O (stereo not given) | > 56 | > 41.6 | > 74.2 | 24.2 | 36.1 | > 52.1 | 29 | 24.1 | 27.9 | 32.1
2 | O=C(O)c1ccc(Nc2nc3cc(C(F)(F)F)ccc3nc2C(=O)O)cc1 | > 100 | > 100 | > 100 | – | > 100 | > 100 | > 100 | > 100 | > 100 | –
3 | COC(=O)C(C)Sc1nc2cc(Cl)ccc2s1 (stereo not given) | > 100 | > 100 | > 100 | > 100 | > 100 | > 100 | > 100 | > 100 | > 100 | > 100
4 | CCCCSc1n/c(=C\c2ccc(N(C)C)cc2)c2nnnn12 | > 100 | > 100 | > 100 | > 100 | > 100 | > 100 | > 100 | – | > 100 | > 100
5 | N#CC1=CNc2sccc2S1(=O)=O | > 100 | > 100 | > 100 | > 100 | > 100 | > 100 | – | > 100 | > 100 | > 100
6 | OCCN=C1Nc2ccc(Cl)cc2C(=S)N2CSC[C@@H]12 | > 100 | > 100 | – | > 100 | > 100 | > 100 | > 100 | > 100 | > 100 | –
7 | COc1ccc(CNc2nc(NCc3ccc(OC)cc3)nc(N3CCOCC3)n2)cc1 | 93.8 | > 100 | > 100 | > 100 | > 100 | 4.66 | > 100 | 24.4 | > 100 | > 100
8 | COc1cc(/C=C2/SC(c3ccccc3)N(c3cccc([N+](=O)[O-])c3)C2=O)cc(OC)c1OC (stereo not given) | > 100 | > 100 | > 100 | > 100 | > 100 | 86.4 | > 100 | > 100 | > 100 | > 100
9 | COc1ccc(NC2Oc3cc4c(cc3C(c3cc(OC)c(O)c(OC)c3)C2C)OCO4)cc1 (stereo not given) | 31.7 | 32.1 | – | > 100 | 11 | 2.51 | 61.8 | 4.34 | 11.7 | > 100
10 | CCOC(=O)c1cn(-c2ccc(Cl)cc2)c(=O)n2c1nc1ccccc12 | > 100 | > 100 | > 100 | > 100 | > 100 | > 100 | > 100 | > 100 | > 100 | > 100
11 | C=C1C[C@]23C[C@@]1(O)CC[C@H]2[C@@]12C=C[C@H](O)[C@@](C)(C(=O)O1)[C@H]2[C@@H]3C(=O)O | – | – | > 100 | > 100 | – | – | > 100 | > 100 | > 100 | > 100
12 | CSc1ncc2c(n1)-c1ccccc1OC2N1CCCC1 (stereo not given) | 26.1 | > 100 | > 100 | > 100 | > 100 | > 100 | > 100 | > 100 | > 100 | > 100
13 | CC(C)n1c(=O)n(-c2ccccc2)n(C(C)(C)C)c1=O | > 100 | > 100 | > 100 | > 100 | > 100 | – | > 100 | > 100 | > 100 | > 100
14 | CSC(=NC1=NC(C(F)(F)F)(C(F)(F)F)N=C(c2ccccc2)O1)SC | 51.6 | 14.9 | 42.3 | 49.2 | 88.1 | 55 | 24.5 | 33.1 | 42.9 | 60.5
15 | Cc1ccc(S(=O)(=O)N2CCN(CCN(C)CCN3CCN(S(=O)(=O)c4ccc(C)cc4)CC3)CC2)cc1 | 31.8 | 32.7 | 55.2 | 35.6 | 49 | 32 | 27.8 | 32.3 | 37.6 | 30.5
16 | COC1/C=C/C(C)C(C(C)C(OC)C(C)CCC(=O)C(C)C(CCC(=O)O)OC)OC(=O)/C=C/C=C(\C)CC(OC)CC2=CC(=O)O[C@@H](C(C)C(OC)CC(OC)/C=C/C(C)C(OC)C1)[C@H]2O (stereo not given in full) | 0.343 | 2.93 | > 5 | 1.36 | 1.78 | > 5 | 1.49 | 2.88 | > 5 | > 3.9
17 | N#CCCN(CCCN(C(=O)Nc1ccccc1)c1ccccc1)C(=O)Nc1ccccc1 | – | > 100 | > 100 | > 100 | > 100 | > 100 | > 100 | > 100 | > 100 | > 100
18 | COc1ccc2c(c1)CCc1c-2n(CCN(C)C)c2ccc(OC)cc12 | 41.1 | > 100 | > 100 | > 100 | > 100 | 32.6 | – | > 100 | > 100 | > 100
19 | CCOP(=O)(OCC)C(Nc1ccc(F)cc1)c1cccc([N+](=O)[O-])c1 (stereo not given) | > 100 | > 100 | > 100 | > 100 | > 100 | > 100 | > 100 | > 100 | > 100 | > 100
20 | Cc1ccc(O)c(C2=NNC(c3cccc(Br)c3)C2)c1 (stereo not given) | – | > 100 | > 100 | 92.7 | – | 46.8 | > 100 | > 100 | > 100 | > 100
21 | COS(=O)c1cc(Cl)cc(Cl)c1O (stereo not given) | > 100 | > 100 | > 100 | – | – | – | > 100 | – | > 100 | > 100
